From patent US11249094B2, “Astrocyte traumatome and neurotrauma biomarkers” (THE REGENTS OF THE UNIVERSITY OF CALIFORNIA, priority 2015, dated 2022)

Test system: Trauma-released GFAP upper and lower BDPs
Assay: GFAP breakdown products in conditioned medium of severely stretched astrocyte cultures with protease inhibitors (immunoblot)
Format: cell-based, human
Settings: 48 hour post-injury, DAKO anti-GFAP polyclonal antibody immunoblot
Protocol: Human astrocytes were isolated from 16-18 week donated fetal neocortical brain specimen, purified and then differentiated on deformable membranes (Wanner, 2012). Cell membrane wounding/compromise, mechanoporation (Barbee, 2005), was determined using Propidium iodide (PI) uptake in living cultures accompanied by nuclear shape assessment (middle picture, stained nuclei, Hoechst stained after fixation, with little pink dots, nucleoli that are PI-stained). Cell death was determined by PI uptake accompanied by condensed nuclei (pyknotic nuclei with compacted chromatin and bright Hoechst and PI stains). Significant percent of cell integrity compromise is shown 30 min post-injury (left graph) while significant cell death was present two days post-injury (bars on the right).
In order to capture the full range of signal intensity, signals from multiple exposures of immunoblots were densitometrically measured (optical densities) and scaled to match a single exposure.
Shown in FIG. 25 are two film exposures of GFAP, upper and lower breakdown products 48 hour post-injury in conditioned medium samples using the DAKO anti-GFAP polyclonal antibody. Severely stretched and unstretched cultures received either no drug, calpain inhibitor PD150606 (100 μM, “Cali”) or pan-caspase inhibitor Z-VAD FMK (8.8 μM, “Casi”). […]

Row | Compound | Trauma-released GFAP upper and lower BDPs in conditioned medium (8.8 μM) | Trauma-released GFAP upper and lower BDPs in conditioned medium (100 μM)
1 | Z-VAD FMK | reduced | 
2 | O=C(O)/C(S)=C/c1ccc(I)cc1 [PD150606] |  | reduced
